According to ChEMBL document CHEMBL4507324 (2021):

Experiments:
Conditions in all cases: Compound concentration 100.0 nM
[1] = biological target: Cyclin-dependent kinase 16 (Homo sapiens) (UniProt Q00536)
[2] = biological target: Mitogen-activated protein kinase 15 (Homo sapiens) (UniProt Q8TD08)
[3] = biological target: Tyrosine-protein kinase Mer (Homo sapiens) (UniProt Q12866)
[4] = biological target: Calcium/calmodulin-dependent protein kinase kinase 2 (Homo sapiens) (UniProt Q96RR4)
[5] = biological target: Tyrosine-protein kinase Srms (Homo sapiens) (UniProt Q9H3Y6)
[6] = biological target: Cyclin-dependent kinase-like 5 (Homo sapiens) (UniProt O76039)
[7] = biological target: Fibroblast growth factor receptor 4 (Homo sapiens) (UniProt P22455)
[8] = biological target: Protein-tyrosine kinase 2-beta (Homo sapiens) (UniProt Q14289)
[9] = biological target: MAP kinase-activated protein kinase 2 (Homo sapiens) (UniProt P49137)
[10] = biological target: Serine/threonine-protein kinase TAO3 (Homo sapiens) (UniProt Q9H2K8)
[11] = biological target: Serine/threonine-protein kinase SIK1 (Homo sapiens) (UniProt P57059)
[12] = biological target: Calcium-dependent protein kinase 1 (Plasmodium falciparum) (UniProt P62344)
[13] = biological target: Serine/threonine-protein kinase tousled-like 1 (Homo sapiens) (UniProt Q9UKI8)
[14] = biological target: Casein kinase I isoform alpha-like (Homo sapiens) (UniProt Q8N752)
[15] = biological target: Mast/stem cell growth factor receptor Kit (Homo sapiens) (UniProt P10721)
[16] = biological target: Mitogen-activated protein kinase kinase kinase 5 (Homo sapiens) (UniProt Q99683)
[17] = biological target: Serine/threonine-protein kinase pim-3 (Homo sapiens) (UniProt Q86V86)
[18] = biological target: Tyrosine-protein kinase JAK3 (Homo sapiens) (UniProt P52333)
[19] = biological target: Myotonin-protein kinase (Homo sapiens) (UniProt Q09013)
[20] = biological target: RAC-beta serine/threonine-protein kinase (Homo sapiens) (UniProt P31751)
[21] = biological target: RAF proto-oncogene serine/threonine-protein kinase (Homo sapiens) (UniProt P04049)
[22] = biological target: Protein-tyrosine kinase 6 (Homo sapiens) (UniProt Q13882)
[23] = biological target: Dual specificity mitogen-activated protein kinase kinase 5 (Homo sapiens) (UniProt Q13163)
[24] = biological target: Tyrosine-protein kinase BTK (Homo sapiens) (UniProt Q06187)
[25] = tested on: Hepatocyte growth factor receptor (Homo sapiens), P08581 [Y1235D]
[26] = biological target: Proto-oncogene tyrosine-protein kinase ROS (Homo sapiens) (UniProt P08922)
[27] = biological target: Peripheral plasma membrane protein CASK (Homo sapiens) (UniProt O14936)
[28] = biological target: Serine/threonine-protein kinase D3 (Homo sapiens) (UniProt O94806)
[29] = tested on: Tyrosine-protein kinase ABL1 (Homo sapiens), P00519 [E255K]
[30] = biological target: Cyclin-dependent kinase 13 (Homo sapiens) (UniProt Q14004)
[31] = biological target: Homeodomain-interacting protein kinase 2 (Homo sapiens) (UniProt Q9H2X6)
[32] = biological target: MAP kinase-interacting serine/threonine-protein kinase 2 (Homo sapiens) (UniProt Q9HBH9)
[33] = biological target: Serine/threonine-protein kinase SBK1 (Homo sapiens) (UniProt Q52WX2)
[34] = biological target: Inhibitor of nuclear factor kappa-B kinase subunit alpha (Homo sapiens) (UniProt O15111)
[35] = biological target: Mitogen-activated protein kinase 13 (Homo sapiens) (UniProt O15264)
[36] = biological target: Dual specificity protein kinase CLK2 (Homo sapiens) (UniProt P49760)
[37] = tested on: Receptor-type tyrosine-protein kinase FLT3 (Homo sapiens), P36888 [UNDEFINED MUTATION]
[38] = biological target: Tyrosine-protein kinase JAK1 (Homo sapiens) (UniProt P23458)
[39] = biological target: Serine/threonine-protein kinase RIO2 (Homo sapiens) (UniProt Q9BVS4)
[40] = biological target: Phosphatidylinositol 4-phosphate 5-kinase type-1 alpha (Homo sapiens) (UniProt Q99755)
[41] = biological target: Tyrosine-protein kinase Tec (Homo sapiens) (UniProt P42680)
[42] = biological target: Phosphorylase b kinase gamma catalytic chain, skeletal muscle/heart isoform (Homo sapiens) (UniProt Q16816)
[43] = biological target: LIM domain kinase 1 (Homo sapiens) (UniProt P53667)
[44] = biological target: Cyclin-dependent kinase 17 (Homo sapiens) (UniProt Q00537)
[45] = biological target: Mitogen-activated protein kinase 3 (Homo sapiens) (UniProt P27361)

Measured: residual activity

Chain of Calcium/calmodulin-dependent protein kinase kinase 2 (Homo sapiens) (Q96RR4 2-588 limits assumed): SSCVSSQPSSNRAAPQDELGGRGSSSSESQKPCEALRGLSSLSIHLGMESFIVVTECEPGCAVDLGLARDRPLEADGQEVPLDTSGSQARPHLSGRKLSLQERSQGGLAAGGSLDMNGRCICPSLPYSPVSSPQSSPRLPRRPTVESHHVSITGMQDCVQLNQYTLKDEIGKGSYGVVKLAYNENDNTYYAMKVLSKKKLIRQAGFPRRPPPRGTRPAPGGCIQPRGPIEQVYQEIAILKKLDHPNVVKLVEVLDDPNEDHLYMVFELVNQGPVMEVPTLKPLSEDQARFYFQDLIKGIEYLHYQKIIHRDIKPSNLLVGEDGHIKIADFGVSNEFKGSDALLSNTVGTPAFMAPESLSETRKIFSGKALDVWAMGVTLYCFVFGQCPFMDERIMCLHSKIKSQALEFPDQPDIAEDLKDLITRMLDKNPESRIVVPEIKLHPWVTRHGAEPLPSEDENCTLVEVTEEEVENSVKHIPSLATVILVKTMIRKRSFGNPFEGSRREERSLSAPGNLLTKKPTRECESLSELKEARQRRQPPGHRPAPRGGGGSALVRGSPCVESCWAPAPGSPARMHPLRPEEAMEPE
Chain of Phosphorylase b kinase gamma catalytic chain, skeletal muscle/heart isoform (Homo sapiens) (Q16816 whole entry, looked up, the tested form may be a part, canonical isoform): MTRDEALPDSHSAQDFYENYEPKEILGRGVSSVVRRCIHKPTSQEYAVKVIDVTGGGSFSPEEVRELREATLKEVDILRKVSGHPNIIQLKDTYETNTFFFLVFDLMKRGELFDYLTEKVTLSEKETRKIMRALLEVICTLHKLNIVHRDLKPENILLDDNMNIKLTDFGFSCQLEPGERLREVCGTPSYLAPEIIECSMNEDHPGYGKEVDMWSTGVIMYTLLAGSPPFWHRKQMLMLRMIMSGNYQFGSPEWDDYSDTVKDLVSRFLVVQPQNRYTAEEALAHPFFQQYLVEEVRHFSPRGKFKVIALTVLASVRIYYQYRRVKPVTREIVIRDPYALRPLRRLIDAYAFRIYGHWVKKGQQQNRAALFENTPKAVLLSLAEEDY
Chain of Tyrosine-protein kinase JAK3 (Homo sapiens) (P52333 whole entry): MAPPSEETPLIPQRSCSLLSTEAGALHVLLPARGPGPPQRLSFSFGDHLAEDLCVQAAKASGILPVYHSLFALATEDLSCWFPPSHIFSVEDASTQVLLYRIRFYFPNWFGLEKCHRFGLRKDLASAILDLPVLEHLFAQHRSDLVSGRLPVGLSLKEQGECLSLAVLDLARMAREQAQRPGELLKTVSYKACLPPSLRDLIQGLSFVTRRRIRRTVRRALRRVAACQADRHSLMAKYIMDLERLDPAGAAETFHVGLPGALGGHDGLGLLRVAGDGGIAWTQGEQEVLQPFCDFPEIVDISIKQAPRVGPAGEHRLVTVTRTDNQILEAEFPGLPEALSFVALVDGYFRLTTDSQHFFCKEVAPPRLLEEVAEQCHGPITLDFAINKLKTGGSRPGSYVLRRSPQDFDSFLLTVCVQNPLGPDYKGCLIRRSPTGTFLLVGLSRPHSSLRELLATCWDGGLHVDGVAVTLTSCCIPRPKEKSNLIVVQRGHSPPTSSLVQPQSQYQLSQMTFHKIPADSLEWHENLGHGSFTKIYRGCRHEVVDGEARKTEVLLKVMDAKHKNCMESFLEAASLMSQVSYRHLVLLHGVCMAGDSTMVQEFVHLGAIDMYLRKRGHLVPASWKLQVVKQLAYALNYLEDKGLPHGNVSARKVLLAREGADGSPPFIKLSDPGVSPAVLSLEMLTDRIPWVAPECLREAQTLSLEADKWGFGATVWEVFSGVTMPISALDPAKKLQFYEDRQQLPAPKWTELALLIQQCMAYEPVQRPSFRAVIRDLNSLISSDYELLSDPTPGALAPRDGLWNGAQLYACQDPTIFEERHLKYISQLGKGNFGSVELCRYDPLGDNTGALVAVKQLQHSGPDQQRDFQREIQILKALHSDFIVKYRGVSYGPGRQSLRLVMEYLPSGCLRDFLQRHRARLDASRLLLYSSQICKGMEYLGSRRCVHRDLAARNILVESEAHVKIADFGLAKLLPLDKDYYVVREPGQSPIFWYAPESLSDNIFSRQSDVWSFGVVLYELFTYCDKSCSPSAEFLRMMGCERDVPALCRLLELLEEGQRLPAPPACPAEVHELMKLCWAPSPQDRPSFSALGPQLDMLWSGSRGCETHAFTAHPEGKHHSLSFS
Chain of Mitogen-activated protein kinase 13 (Homo sapiens) (O15264 whole entry): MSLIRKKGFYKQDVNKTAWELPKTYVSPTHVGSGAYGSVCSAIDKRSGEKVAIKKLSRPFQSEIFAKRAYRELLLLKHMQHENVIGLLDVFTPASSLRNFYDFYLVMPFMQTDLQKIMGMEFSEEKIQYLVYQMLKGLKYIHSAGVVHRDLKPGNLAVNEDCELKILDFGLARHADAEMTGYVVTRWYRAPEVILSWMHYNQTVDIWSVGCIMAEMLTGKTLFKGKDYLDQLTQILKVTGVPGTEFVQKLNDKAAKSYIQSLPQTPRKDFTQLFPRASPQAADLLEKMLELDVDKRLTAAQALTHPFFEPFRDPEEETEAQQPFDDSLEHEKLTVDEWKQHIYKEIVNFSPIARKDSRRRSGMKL
Chain of Tyrosine-protein kinase JAK1 (Homo sapiens) (P23458 whole entry): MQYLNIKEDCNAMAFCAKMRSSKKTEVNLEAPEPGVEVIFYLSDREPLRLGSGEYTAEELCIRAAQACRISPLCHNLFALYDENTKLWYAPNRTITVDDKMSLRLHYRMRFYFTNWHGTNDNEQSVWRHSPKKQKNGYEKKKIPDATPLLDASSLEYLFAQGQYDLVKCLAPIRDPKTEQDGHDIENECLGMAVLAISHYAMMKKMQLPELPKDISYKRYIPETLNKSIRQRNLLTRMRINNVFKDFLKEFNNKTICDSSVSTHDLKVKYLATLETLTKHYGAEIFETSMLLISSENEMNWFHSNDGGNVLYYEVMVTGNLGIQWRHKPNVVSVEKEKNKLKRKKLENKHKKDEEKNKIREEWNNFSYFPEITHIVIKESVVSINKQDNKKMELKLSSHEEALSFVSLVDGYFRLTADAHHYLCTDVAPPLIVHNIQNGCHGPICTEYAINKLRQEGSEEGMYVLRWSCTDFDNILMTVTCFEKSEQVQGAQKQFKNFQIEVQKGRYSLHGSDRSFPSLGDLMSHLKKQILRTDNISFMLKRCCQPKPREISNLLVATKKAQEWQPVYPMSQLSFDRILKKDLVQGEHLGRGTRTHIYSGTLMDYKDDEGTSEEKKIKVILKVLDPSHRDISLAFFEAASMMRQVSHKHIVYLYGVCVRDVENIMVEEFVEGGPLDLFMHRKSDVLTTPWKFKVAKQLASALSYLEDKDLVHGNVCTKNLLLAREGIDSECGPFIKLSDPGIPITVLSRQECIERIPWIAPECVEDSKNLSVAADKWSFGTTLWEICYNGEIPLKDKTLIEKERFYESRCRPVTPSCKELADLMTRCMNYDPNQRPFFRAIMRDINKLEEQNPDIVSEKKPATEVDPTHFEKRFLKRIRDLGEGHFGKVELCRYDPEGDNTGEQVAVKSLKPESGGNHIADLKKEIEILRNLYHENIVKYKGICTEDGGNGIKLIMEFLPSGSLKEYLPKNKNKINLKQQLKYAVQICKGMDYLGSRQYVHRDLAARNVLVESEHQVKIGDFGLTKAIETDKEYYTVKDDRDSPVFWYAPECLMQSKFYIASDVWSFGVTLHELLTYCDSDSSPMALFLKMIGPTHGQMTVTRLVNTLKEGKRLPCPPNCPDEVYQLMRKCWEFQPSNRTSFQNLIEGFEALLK
Chain of Serine/threonine-protein kinase tousled-like 1 (Homo sapiens) (Q9UKI8 whole entry, canonical isoform): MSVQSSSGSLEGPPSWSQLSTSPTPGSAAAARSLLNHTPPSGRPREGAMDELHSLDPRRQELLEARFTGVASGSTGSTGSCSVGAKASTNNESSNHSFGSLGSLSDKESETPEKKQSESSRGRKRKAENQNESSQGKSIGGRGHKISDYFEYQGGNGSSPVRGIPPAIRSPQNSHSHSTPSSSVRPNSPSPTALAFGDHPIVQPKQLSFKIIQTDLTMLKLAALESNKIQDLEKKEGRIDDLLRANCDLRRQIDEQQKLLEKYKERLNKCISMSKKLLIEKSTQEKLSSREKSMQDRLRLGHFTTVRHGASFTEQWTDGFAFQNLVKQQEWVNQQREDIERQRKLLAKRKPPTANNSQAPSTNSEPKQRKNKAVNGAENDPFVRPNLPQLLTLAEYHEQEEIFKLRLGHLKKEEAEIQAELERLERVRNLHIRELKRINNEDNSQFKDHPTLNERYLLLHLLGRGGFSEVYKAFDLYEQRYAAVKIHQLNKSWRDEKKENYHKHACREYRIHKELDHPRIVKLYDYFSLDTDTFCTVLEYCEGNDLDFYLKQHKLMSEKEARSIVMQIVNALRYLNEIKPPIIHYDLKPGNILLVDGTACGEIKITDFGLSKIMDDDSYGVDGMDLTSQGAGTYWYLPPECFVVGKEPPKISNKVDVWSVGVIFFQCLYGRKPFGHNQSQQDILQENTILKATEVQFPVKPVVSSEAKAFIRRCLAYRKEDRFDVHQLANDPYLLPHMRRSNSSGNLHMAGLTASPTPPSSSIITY
Chain of Cyclin-dependent kinase 16 (Homo sapiens) (Q00536 whole entry): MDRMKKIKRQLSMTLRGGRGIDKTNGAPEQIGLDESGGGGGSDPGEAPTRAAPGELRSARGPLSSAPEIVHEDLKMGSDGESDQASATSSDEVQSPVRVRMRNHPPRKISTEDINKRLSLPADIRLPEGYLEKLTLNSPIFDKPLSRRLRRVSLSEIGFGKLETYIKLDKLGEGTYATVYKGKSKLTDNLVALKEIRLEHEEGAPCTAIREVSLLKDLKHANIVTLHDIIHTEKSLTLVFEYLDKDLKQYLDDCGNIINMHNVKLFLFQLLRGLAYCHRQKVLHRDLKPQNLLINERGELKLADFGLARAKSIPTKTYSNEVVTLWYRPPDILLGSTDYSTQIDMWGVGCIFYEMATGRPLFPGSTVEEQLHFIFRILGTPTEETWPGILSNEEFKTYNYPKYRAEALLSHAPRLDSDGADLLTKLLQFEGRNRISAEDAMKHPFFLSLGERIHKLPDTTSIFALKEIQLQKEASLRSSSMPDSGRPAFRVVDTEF

CS(=O)(=O)N1CCCC(NC(=O)[C@H](CCC2CCCCC2)NC(=O)c2ccc(CNc3ncnc4c3nnn4-c3ccccc3)cc2)C1 (stereo not given in full) [SR-301]
inactive: [1] 100% | [2] 100% | [3] 91% | [4] 78% | [5] 98% | [6] 100% | [7] 100% | [8] 94% | [9] 100% | [10] 100% | [11] 100% | [12] 100% | [13] 94% | [14] 100% | [15] 100% | [16] 100% | [17] 100% | [18] 100% | [19] 100% | [20] 100% | [21] 70% | [22] 76% | [23] 100% | [24] 100% | [25] 98% | [26] 91% | [27] 100% | [28] 100% | [29] 87% | [30] 100% | [31] 100% | [32] 100% | [33] 82% | [34] 100% | [35] 100% | [36] 100% | [37] 100% | [38] 89% | [39] 99% | [40] 100% | [41] 100% | [42] 87% | [43] 100% | [44] 86% | [45] 89%

CS(=O)(=O)N1CCCC(NC(=O)[C@H](CCC2CCCCC2)NC(=O)c2ccc(CNC(=O)c3cnc4ccccn34)cc2)C1 (stereo not given in full) [SR-302]
inactive: [1] 100% | [2] 100% | [3] 94% | [4] 88% | [5] 71% | [6] 100% | [7] 100% | [8] 100% | [9] 76% | [10] 83% | [11] 92% | [12] 78% | [13] 72% | [14] 99% | [15] 100% | [16] 100% | [17] 99% | [18] 69% | [19] 98% | [20] 93% | [21] 61% | [22] 81% | [23] 97% | [24] 100% | [25] 99% | [26] 100% | [27] 100% | [28] 90% | [29] 74% | [30] 61% | [31] 100% | [32] 84% | [33] 77% | [34] 100% | [35] 100% | [36] 98% | [37] 86% | [38] 100% | [39] 100% | [40] 89% | [41] 94% | [42] 68% | [43] 75% | [44] 80% | [45] 67%
